Assays:
[1] = system: Lactobacillus rennini (DSM 20253); assay: Antimicrobial action of licoricidin in soy sauce at various pH (Test Example 5); assay type: cell-based; parameters: key: A: The bacterial count decreases to less than 10% of the bacterial count of the control group.; B: The bacterial count decreases to 10% or more and less than 50% of the bacterial count of the control group.; C: The bacterial count decreases to 50% or more and less than 100% of the bacterial count of control group.; D: The bacterial count is the same as the bacterial count of the control group; settings: salt 4% (w/v)
Protocol: Commercially available whole soybean soy sauce (produced by Kikkoman Corporation) was electrodialyzed and then concentrated under reduced pressure to obtain soy sauce at a salt concentration of 0% (w/v) and an alcohol concentration of 0% (v/v). Then, salt and/or alcohol was added to the above-mentioned obtained soy sauce, and hydrochloric acid or an aqueous sodium hydroxide solution was then added to adjust the pH to a desired pH. Germfree purified water was added, and the mixture was then heat-treated to produce soy sauce at the salt concentration, the alcohol concentration, and the pH shown in the following Table 17.
Licoricidin (produced by ChemFaces) was added to each of the obtained soy sauces to concentrations of 1 ppm, 5 ppm, 10 ppm, 25 ppm, and 50 ppm. Lactic acid bacteria (Lactobacillus rennini (DSM 20253)) were then added to 10^6 to 10^7 cells/mL and cultured at 30° C. for 7 days. After the culture, the number of lactic acid bacteria was measured using the GAM agar medium “Nissui”. Soy sauce to which licoricidin was not added was used as a control group, and the antimicrobial activity was evaluated in comparison with the number of lactic acid bacteria in the control group. The evaluation was performed using the same criterion as in Test Example 4.

[2] = system: Lactobacillus fructivores (NBRC 13954); assay: Antimicrobial action of oxygen-containing heterocyclic compounds in soy sauce (Test Example 7); assay type: cell-based; settings: NBRC13954, 168 h, salt 4% (w/v), alcohol 5% (v/v)
Protocol: Commercially available whole soybean soy sauce (produced by Kikkoman Corporation) was electrodialyzed and then concentrated under reduced pressure to produce soy sauce at a salt concentration of 0% (w/v) and an alcohol concentration of 0% (v/v). Then, salt and/or alcohol was added to the above-mentioned obtained soy sauce, and the mixture was then heat-treated to produce soy sauce at a salt concentration of 4% (w/v) and an alcohol concentration of 5% (v/v).
The test substance described in Table 21 was added to the soy sauce produced in Test Example 6 to concentrations of 0.1 ppm, 0.5 ppm, 1 ppm, 5 ppm, 25 ppm, and 50 ppm. Lactic acid bacteria (Lactobacillus fructivores (NBRC 13954)) were then added to 10^4 to 10^5 cells/mL and cultured at 30° C. for 7 days. After the culture, the number of lactic acid bacteria was measured using Difco Lactobacilli MRS Agar. Soy sauce to which the test substance was not added was used as a control group, and the antimicrobial activity was evaluated in comparison with the number of lactic acid bacteria in the control group. The evaluation was performed using the following criterion.
• A: The bacterial count decreases to less than 10% of the bacterial count of a control group. • B: The bacterial count decreases to 10% or more and less than 50% of the bacterial count of the control group. • C: The bacterial count decreases to 50% or more and less than 100% of the bacterial count of the control group. • D: The bacterial count is the same as the bacterial count of the control group.

`COc1c(CC=C(C)C)c(O)cc2c1C[C@H](c1ccc(O)c(CC=C(C)C)c1O)CO2` [Licoricidin, 4-[(R)-7-hydroxy-5-methoxy-6-(3-methyl-2-butenyl)chroman-3-yl]-2-(3-methyl-2-butenyl)-1,3-benzenediol] was tested, and the Antimicrobial activity ([1]; pH 4.2, alcohol 0% (v/v), licoricidin 25 ppm) was “A (The bacterial count decreases to less than 10% of the bacterial count of the control group.)”, the Antimicrobial activity ([1]; pH 4.2, alcohol 0% (v/v), licoricidin 50 ppm) was “A (The bacterial count decreases to less than 10% of the bacterial count of the control group.)” and the Antimicrobial activity ([1]; pH 4.2, alcohol 5% (v/v), licoricidin 1 ppm) was “C (The bacterial count decreases to 50% or more and less than 100% of the bacterial count of control group.)”. The Antimicrobial activity ([1]; pH 4.2, alcohol 5% (v/v), licoricidin 5 ppm) was “A (The bacterial count decreases to less than 10% of the bacterial count of the control group.)”, the Antimicrobial activity ([1]; pH 4.2, alcohol 5% (v/v), licoricidin 10 ppm) was “A (The bacterial count decreases to less than 10% of the bacterial count of the control group.)” and the Antimicrobial activity ([1]; pH 4.2, alcohol 5% (v/v), licoricidin 25 ppm) was “A (The bacterial count decreases to less than 10% of the bacterial count of the control group.)”. For the same molecule, the Antimicrobial activity ([1]; pH 4.2, alcohol 5% (v/v), licoricidin 50 ppm) was “A (The bacterial count decreases to less than 10% of the bacterial count of the control group.)”, the Antimicrobial activity ([1]; pH 4.6, alcohol 0% (v/v), licoricidin 1 ppm) was “D” and the Antimicrobial activity ([1]; pH 4.6, alcohol 0% (v/v), licoricidin 5 ppm) was “D”. For the same molecule, the Antimicrobial activity ([1]; pH 4.6, alcohol 0% (v/v), licoricidin 10 ppm) was “A (The bacterial count decreases to less than 10% of the bacterial count of the control group.)”, the Antimicrobial activity ([1]; pH 4.6, alcohol 0% (v/v), licoricidin 25 ppm) was “A (The bacterial count decreases to less than 10% of the bacterial count of the control group.)” and the Antimicrobial activity ([1]; pH 4.6, alcohol 0% (v/v), licoricidin 50 ppm) was “A (The bacterial count decreases to less than 10% of the bacterial count of the control group.)”. For the same molecule, the Antimicrobial activity ([1]; pH 4.6, alcohol 5% (v/v), licoricidin 1 ppm) was “B (The bacterial count decreases to 10% or more and less than 50% of the bacterial count of the control group.)”, the Antimicrobial activity ([1]; pH 4.6, alcohol 5% (v/v), licoricidin 5 ppm) was “A (The bacterial count decreases to less than 10% of the bacterial count of the control group.)” and the Antimicrobial activity ([1]; pH 4.6, alcohol 5% (v/v), licoricidin 10 ppm) was “A (The bacterial count decreases to less than 10% of the bacterial count of the control group.)”. For the same molecule, the Antimicrobial activity ([1]; pH 4.6, alcohol 5% (v/v), licoricidin 25 ppm) was “A (The bacterial count decreases to less than 10% of the bacterial count of the control group.)”, the Antimicrobial activity ([1]; pH 4.6, alcohol 5% (v/v), licoricidin 50 ppm) was “A (The bacterial count decreases to less than 10% of the bacterial count of the control group.)” and the Antimicrobial activity ([1]; pH 5.0, alcohol 0% (v/v), licoricidin 1 ppm) was “B (The bacterial count decreases to 10% or more and less than 50% of the bacterial count of the control group.)”. The Antimicrobial activity ([1]; pH 5.0, alcohol 0% (v/v), licoricidin 5 ppm) was “A (The bacterial count decreases to less than 10% of the bacterial count of the control group.)”, the Antimicrobial activity ([1]; pH 5.0, alcohol 0% (v/v), licoricidin 10 ppm) was “A (The bacterial count decreases to less than 10% of the bacterial count of the control group.)” and the Antimicrobial activity ([1]; pH 5.0, alcohol 0% (v/v), licoricidin 25 ppm) was “A (The bacterial count decreases to less than 10% of the bacterial count of the control group.)”. The Antimicrobial activity ([1]; pH 5.0, alcohol 0% (v/v), licoricidin 50 ppm) was “A (The bacterial count decreases to less than 10% of the bacterial count of the control group.)”, the Antimicrobial activity ([1]; pH 5.0, alcohol 5% (v/v), licoricidin 1 ppm) was “C (The bacterial count decreases to 50% or more and less than 100% of the bacterial count of control group.)” and the Antimicrobial activity ([1]; pH 5.0, alcohol 5% (v/v), licoricidin 5 ppm) was “A (The bacterial count decreases to less than 10% of the bacterial count of the control group.)”. For the same molecule, the Antimicrobial activity ([1]; pH 5.0, alcohol 5% (v/v), licoricidin 10 ppm) was “A (The bacterial count decreases to less than 10% of the bacterial count of the control group.)”, the Antimicrobial activity ([1]; pH 5.0, alcohol 5% (v/v), licoricidin 25 ppm) was “A (The bacterial count decreases to less than 10% of the bacterial count of the control group.)” and the Antimicrobial activity ([1]; pH 5.0, alcohol 5% (v/v), licoricidin 50 ppm) was “A (The bacterial count decreases to less than 10% of the bacterial count of the control group.)”. The Antimicrobial activity ([1]; pH 5.4, alcohol 0% (v/v), licoricidin 1 ppm) was “B (The bacterial count decreases to 10% or more and less than 50% of the bacterial count of the control group.)”, the Antimicrobial activity ([1]; pH 5.4, alcohol 0% (v/v), licoricidin 5 ppm) was “A (The bacterial count decreases to less than 10% of the bacterial count of the control group.)” and the Antimicrobial activity ([1]; pH 5.4, alcohol 0% (v/v), licoricidin 10 ppm) was “A (The bacterial count decreases to less than 10% of the bacterial count of the control group.)”. The Antimicrobial activity ([1]; pH 5.4, alcohol 0% (v/v), licoricidin 25 ppm) was “A (The bacterial count decreases to less than 10% of the bacterial count of the control group.)”, the Antimicrobial activity ([1]; pH 5.4, alcohol 0% (v/v), licoricidin 50 ppm) was “A (The bacterial count decreases to less than 10% of the bacterial count of the control group.)” and the Antimicrobial activity ([1]; pH 5.4, alcohol 5% (v/v), licoricidin 1 ppm) was “C (The bacterial count decreases to 50% or more and less than 100% of the bacterial count of control group.)”. For the same molecule, the Antimicrobial activity ([1]; pH 5.4, alcohol 5% (v/v), licoricidin 5 ppm) was “A (The bacterial count decreases to less than 10% of the bacterial count of the control group.)”, the Antimicrobial activity ([1]; pH 5.4, alcohol 5% (v/v), licoricidin 10 ppm) was “A (The bacterial count decreases to less than 10% of the bacterial count of the control group.)” and the Antimicrobial activity ([1]; pH 5.4, alcohol 5% (v/v), licoricidin 25 ppm) was “A (The bacterial count decreases to less than 10% of the bacterial count of the control group.)”. For the same molecule, the Antimicrobial activity ([1]; pH 5.4, alcohol 5% (v/v), licoricidin 50 ppm) was “A (The bacterial count decreases to less than 10% of the bacterial count of the control group.)”, the Antimicrobial activity ([1]; pH 5.8, alcohol 0% (v/v), licoricidin 1 ppm) was “D” and the Antimicrobial activity ([1]; pH 5.8, alcohol 0% (v/v), licoricidin 5 ppm) was “A (The bacterial count decreases to less than 10% of the bacterial count of the control group.)”. The Antimicrobial activity ([1]; pH 5.8, alcohol 0% (v/v), licoricidin 10 ppm) was “A (The bacterial count decreases to less than 10% of the bacterial count of the control group.)”, the Antimicrobial activity ([1]; pH 5.8, alcohol 0% (v/v), licoricidin 25 ppm) was “A (The bacterial count decreases to less than 10% of the bacterial count of the control group.)” and the Antimicrobial activity ([1]; pH 5.8, alcohol 0% (v/v), licoricidin 50 ppm) was “A (The bacterial count decreases to less than 10% of the bacterial count of the control group.)”. The Antimicrobial activity ([1]; pH 5.8, alcohol 5% (v/v), licoricidin 1 ppm) was “D”, the Antimicrobial activity ([1]; pH 5.8, alcohol 5% (v/v), licoricidin 5 ppm) was “D” and the Antimicrobial activity ([1]; pH 5.8, alcohol 5% (v/v), licoricidin 10 ppm) was “A (The bacterial count decreases to less than 10% of the bacterial count of the control group.)”. The Antimicrobial activity ([1]; pH 5.8, alcohol 5% (v/v), licoricidin 25 ppm) was “A (The bacterial count decreases to less than 10% of the bacterial count of the control group.)”, the Antimicrobial activity ([1]; pH 5.8, alcohol 5% (v/v), licoricidin 50 ppm) was “A (The bacterial count decreases to less than 10% of the bacterial count of the control group.)” and the activity at 0.1 ppm ([2]; test substance 0.1 ppm) was 10 to 50%. The activity at 0.5 ppm ([2]; test substance 0.5 ppm) was 10 to 50%, the activity at 1 ppm ([2]; test substance 1 ppm) was 10 to 50% and the activity at 5 ppm ([2]; test substance 5 ppm) was 10 to 50%. The activity at 25 ppm ([2]; test substance 25 ppm) was < 10% and the activity at 50 ppm ([2]; test substance 50 ppm) was < 10%.

From patent publication US20230276831A1, “Food/Beverage Article” (Kikkoman Corporation, priority 2020, published 2023)
